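Step 1: Grow cells in 96-well plates. Step 2: Expose to compound for 48 hours at 5 concentrations. Step 3: Interpolate endpoints linearly; if unreached, use highest concentration. GI50 marks 50% less growth.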 Calls of active or inactive are those of the source. Rule as the data show it: active = GI50 up to about 1.1 µM and inactive = higher.

Test systems include UO-31; HL-60; SF-295; NCI-H226; CCRF-CEM; SK-OV-3; SF-268; SR; NCI-H522; SN12C; HCT-15; SK-MEL-5; LOX IMVI; HCT-116; SK-MEL-28; KM12; A498.
What all share (experiment): NCI anticancer screen, dose series, 48 h

Turning to `O=C(/C=C/c1ccc[nH]1)c1ccccc1`, the GI50 with UO-31 is > 100 µM (inactive); with HL-60, 41.2 µM (inactive); with SF-295, > 100 µM (inactive); in the experiment with NCI-H226 it was > 100 µM (inactive); in the experiment with CCRF-CEM it was > 100 µM (inactive); in the experiment with SK-OV-3, > 100 µM (inactive). In addition, the GI50 in the experiment with SF-268 is > 100 µM (inactive); in the experiment with SR, > 100 µM (inactive); in the experiment with NCI-H522 it was > 100 µM (inactive); in the experiment on SN12C, > 100 µM (inactive); in the experiment on HCT-15 it was more than 100 µM; with SK-MEL-5 it was > 100 µM (inactive). Further, the GI50 in the experiment on LOX IMVI, in the experiment with HCT-116, in the experiment on SK-MEL-28 and in the experiment on KM12 was > 100 µM (inactive) each time.
On to `CCCc1c2c([nH]c(=O)c1C)C(=O)c1[nH]c(=O)c(C)c(CCC)c1C2=O`, for which the GI50 is 56.4 µM (inactive) with UO-31; 3.65 µM (inactive) in the experiment with HL-60; 47.6 µM (inactive) in the experiment on SF-295; 77.3 µM (inactive) with NCI-H226; 21.7 µM (inactive) with CCRF-CEM; 23 µM (inactive) with SF-268. For the same molecule, the GI50 in the experiment with SR was 5.56 µM (inactive); in the experiment with SN12C, 3.64 µM (inactive); with HCT-15, 11.2 µM; in the experiment with SK-MEL-5 it was 3.29 µM (inactive); in the experiment on LOX IMVI, 8.11 µM (inactive); in the experiment with HCT-116, 3.01 µM (inactive). Also, the GI50 in the experiment on A498 was > 100 µM (inactive); with SK-MEL-28, 23.6 µM (inactive).
Take `Cc1ccc([S+](c2ccccc2)c2cc(C)ccc2C)cc1` (stereo not given): the GI50 with UO-31 was > 100 µM (inactive); in the experiment with HL-60, 1.97 µM (inactive); in the experiment with SF-295, 12.4 µM (inactive); with CCRF-CEM, 0.438 µM (active); with SF-268, 6.64 µM (inactive); in the experiment on SR, 24.6 µM (inactive). Further, the GI50 in the experiment on NCI-H522 is 3.13 µM (inactive); in the experiment with SN12C it was 5.94 µM (inactive); with SK-MEL-5, 0.53 µM (active); in the experiment with LOX IMVI it was 2.35 µM (inactive); with HCT-116 it was 2.94 µM (inactive); in the experiment with A498 it was 0.0435 µM (active). For the same molecule, the GI50 with KM12 is 2.85 µM (inactive).
`CO[C@H](C(=O)O[C@H]1C(=O)N2CC[C@@H]3CCC[C@H]1C32C)c1ccccc1` (stereo not given in full): the GI50 in the experiment on UO-31, in the experiment with HL-60, in the experiment on SF-295, in the experiment with NCI-H226, with CCRF-CEM and in the experiment with SK-OV-3 was > 100 µM (inactive) throughout. Besides, the GI50 in the experiment with SF-268 was > 100 µM (inactive); with SR, > 100 µM (inactive); in the experiment on NCI-H522, 66.2 µM (inactive); in the experiment on SN12C, > 100 µM (inactive); with HCT-15, more than 10 µM; with SK-MEL-5, > 100 µM (inactive). Also, the GI50 in the experiment on LOX IMVI, in the experiment on HCT-116, with SK-MEL-28 and in the experiment with KM12 was > 100 µM (inactive) in each case.
As for `COc1cccc(C(=O)O)c1Cc1cccc2ccccc12`, the GI50 in the experiment on UO-31, in the experiment with HL-60, with SF-295, in the experiment on NCI-H226, in the experiment on CCRF-CEM and in the experiment with SK-OV-3 was > 100 µM (inactive) each time. In addition, the GI50 in the experiment with SF-268 was > 100 µM (inactive); in the experiment with SR, > 100 µM (inactive); in the experiment on NCI-H522, > 100 µM (inactive); in the experiment on SN12C, > 100 µM (inactive); in the experiment with HCT-15, more than 100 µM; in the experiment with SK-MEL-5, > 100 µM (inactive). The GI50 in the experiment on LOX IMVI, with HCT-116, with SK-MEL-28 and with KM12 was > 100 µM (inactive) in each case.

Values taken from ChEMBL document CHEMBL1201862, “PubChem BioAssay data set” (2004).
